Results reported in ChEMBL document CHEMBL1145498, “A systematic interaction map of validated kinase inhibitors with Ser/Thr kinases” (Proc Natl Acad Sci U S A, 2007).

These molecules were tested against T1, Serine/threonine-protein kinase PLK4 (Homo sapiens) (UniProt O00444).
T1 sequence (whole entry): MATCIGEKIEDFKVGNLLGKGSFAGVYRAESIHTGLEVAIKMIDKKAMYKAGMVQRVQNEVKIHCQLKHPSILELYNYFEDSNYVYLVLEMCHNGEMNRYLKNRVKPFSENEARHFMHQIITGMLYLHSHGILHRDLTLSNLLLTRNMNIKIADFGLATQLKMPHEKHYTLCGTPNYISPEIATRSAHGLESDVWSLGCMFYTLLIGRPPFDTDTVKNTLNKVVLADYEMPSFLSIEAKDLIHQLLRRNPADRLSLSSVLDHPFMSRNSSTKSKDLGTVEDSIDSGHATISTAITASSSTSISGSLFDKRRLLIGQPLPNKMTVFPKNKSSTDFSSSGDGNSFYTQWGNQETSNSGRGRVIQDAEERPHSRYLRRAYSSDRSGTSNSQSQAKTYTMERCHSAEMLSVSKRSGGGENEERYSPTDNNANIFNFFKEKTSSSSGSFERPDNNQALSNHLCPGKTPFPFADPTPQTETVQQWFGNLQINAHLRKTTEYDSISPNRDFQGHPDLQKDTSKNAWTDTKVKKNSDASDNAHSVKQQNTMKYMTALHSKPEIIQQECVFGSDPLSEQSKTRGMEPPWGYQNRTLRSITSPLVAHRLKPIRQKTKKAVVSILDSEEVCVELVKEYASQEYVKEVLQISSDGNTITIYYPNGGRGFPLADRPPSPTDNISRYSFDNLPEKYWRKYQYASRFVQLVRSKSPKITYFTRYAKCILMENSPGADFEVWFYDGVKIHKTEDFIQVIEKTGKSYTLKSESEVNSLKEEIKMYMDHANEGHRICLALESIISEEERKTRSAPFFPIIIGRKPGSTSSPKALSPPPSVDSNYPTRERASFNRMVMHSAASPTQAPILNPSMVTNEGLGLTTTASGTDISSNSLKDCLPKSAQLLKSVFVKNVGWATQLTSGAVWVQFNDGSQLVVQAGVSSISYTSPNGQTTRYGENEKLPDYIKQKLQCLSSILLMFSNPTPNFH

| SMILES | ΔTm [°C] |
| --- | --- |
| COc1ccc(S(=O)(=O)N(CCO)c2ccccc2CN(C)C/C=C/c2ccc(Cl)cc2)cc1 | 1 |
| O=C(Nc1cccc(Nc2nccc(Nc3cccc(C(F)(F)F)c3)n2)c1)C1CC1 [ANILINOPYRIMIDINE1] | 2.2 |
| CCOc1ccc(/C=C2/SC(=O)N(CCN)C2=O)cc1 [HIAZOLIDINEDIONE1] | 0.3 |
| O=C1NC(=O)C(c2cn(CCCn3ccnc3)c3ccccc23)=C1Nc1ccccc1 | 0.8 |

Each molecule was assayed against Mitogen-activated protein kinase 11 (Homo sapiens, UniProt Q15759).
Sequence of Mitogen-activated protein kinase 11 (Q15759 whole entry): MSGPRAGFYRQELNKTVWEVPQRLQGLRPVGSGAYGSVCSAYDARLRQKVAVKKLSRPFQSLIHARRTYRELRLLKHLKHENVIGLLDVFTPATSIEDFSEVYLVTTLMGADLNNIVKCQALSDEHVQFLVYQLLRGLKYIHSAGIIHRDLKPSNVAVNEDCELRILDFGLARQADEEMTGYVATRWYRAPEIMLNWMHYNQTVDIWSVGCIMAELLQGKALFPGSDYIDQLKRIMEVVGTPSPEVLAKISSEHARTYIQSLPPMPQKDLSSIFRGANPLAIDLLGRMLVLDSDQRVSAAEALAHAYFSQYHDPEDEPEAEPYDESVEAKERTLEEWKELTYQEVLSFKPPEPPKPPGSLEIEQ

| SMILES | ΔTm [°C] |
| --- | --- |
| COc1ccc(S(=O)(=O)N(CCO)c2ccccc2CN(C)C/C=C/c2ccc(Cl)cc2)cc1 | 0.2 |
| O=C(Nc1cccc(Nc2nccc(Nc3cccc(C(F)(F)F)c3)n2)c1)C1CC1 [ANILINOPYRIMIDINE1] | 0.8 |
| CCOc1ccc(/C=C2/SC(=O)N(CCN)C2=O)cc1 [HIAZOLIDINEDIONE1] | 0.5 |
| O=C1NC(=O)C(c2cn(CCCn3ccnc3)c3ccccc23)=C1Nc1ccccc1 | 0 |

These molecules were tested against Serine/threonine-protein kinase PAK 5 (Homo sapiens) (UniProt Q9P286).
Sequence of Serine/threonine-protein kinase PAK 5 (Homo sapiens) (Q9P286 whole entry, looked up): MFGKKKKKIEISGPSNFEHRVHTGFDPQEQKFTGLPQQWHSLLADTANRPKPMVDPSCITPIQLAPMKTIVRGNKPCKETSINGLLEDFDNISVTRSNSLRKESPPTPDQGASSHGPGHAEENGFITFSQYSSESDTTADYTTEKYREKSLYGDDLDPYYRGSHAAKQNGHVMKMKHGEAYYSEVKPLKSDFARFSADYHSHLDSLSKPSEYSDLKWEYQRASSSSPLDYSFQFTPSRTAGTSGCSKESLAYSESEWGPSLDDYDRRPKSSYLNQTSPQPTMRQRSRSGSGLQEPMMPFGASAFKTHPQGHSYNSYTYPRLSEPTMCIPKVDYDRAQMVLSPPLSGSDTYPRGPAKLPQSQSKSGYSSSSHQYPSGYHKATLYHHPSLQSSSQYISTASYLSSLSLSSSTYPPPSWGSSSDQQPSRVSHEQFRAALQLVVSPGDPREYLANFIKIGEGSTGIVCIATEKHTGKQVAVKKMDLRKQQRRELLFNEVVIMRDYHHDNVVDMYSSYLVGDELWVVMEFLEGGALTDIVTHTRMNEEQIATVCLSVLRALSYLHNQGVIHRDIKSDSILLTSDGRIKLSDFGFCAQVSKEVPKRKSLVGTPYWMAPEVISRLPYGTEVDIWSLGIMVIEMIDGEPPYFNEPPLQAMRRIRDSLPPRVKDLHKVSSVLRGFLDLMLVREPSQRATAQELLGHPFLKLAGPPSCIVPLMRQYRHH

| SMILES | ΔTm [°C] |
| --- | --- |
| COc1ccc(S(=O)(=O)N(CCO)c2ccccc2CN(C)C/C=C/c2ccc(Cl)cc2)cc1 | -0.4 |
| O=C(Nc1cccc(Nc2nccc(Nc3cccc(C(F)(F)F)c3)n2)c1)C1CC1 [ANILINOPYRIMIDINE1] | 2.6 |
| CCOc1ccc(/C=C2/SC(=O)N(CCN)C2=O)cc1 [HIAZOLIDINEDIONE1] | 0.1 |
| O=C1NC(=O)C(c2cn(CCCn3ccnc3)c3ccccc23)=C1Nc1ccccc1 | 0.1 |

What follows are molecules tested against T2, Serine/threonine-protein kinase Nek2 (Homo sapiens) (UniProt P51955).
T2 sequence (whole entry): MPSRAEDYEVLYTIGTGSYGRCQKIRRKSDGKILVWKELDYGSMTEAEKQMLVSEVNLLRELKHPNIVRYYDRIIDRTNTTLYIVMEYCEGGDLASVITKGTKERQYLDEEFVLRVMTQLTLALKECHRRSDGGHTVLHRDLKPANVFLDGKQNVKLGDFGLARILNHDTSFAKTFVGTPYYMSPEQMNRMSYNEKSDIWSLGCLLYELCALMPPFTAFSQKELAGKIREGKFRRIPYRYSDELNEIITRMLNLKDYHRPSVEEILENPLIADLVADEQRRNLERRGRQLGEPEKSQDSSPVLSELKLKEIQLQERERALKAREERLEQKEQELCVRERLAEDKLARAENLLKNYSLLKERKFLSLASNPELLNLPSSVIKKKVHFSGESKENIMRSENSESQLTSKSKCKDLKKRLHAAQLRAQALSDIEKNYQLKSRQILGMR

| SMILES | ΔTm [°C] |
| --- | --- |
| COc1ccc(S(=O)(=O)N(CCO)c2ccccc2CN(C)C/C=C/c2ccc(Cl)cc2)cc1 | -0.1 |
| O=C(Nc1cccc(Nc2nccc(Nc3cccc(C(F)(F)F)c3)n2)c1)C1CC1 [ANILINOPYRIMIDINE1] | 1.3 |
| CCOc1ccc(/C=C2/SC(=O)N(CCN)C2=O)cc1 [HIAZOLIDINEDIONE1] | 0.8 |
| O=C1NC(=O)C(c2cn(CCCn3ccnc3)c3ccccc23)=C1Nc1ccccc1 | 1.2 |

The molecules below were run against STE20-like serine/threonine-protein kinase (Homo sapiens) (UniProt Q9H2G2).
Sequence of STE20-like serine/threonine-protein kinase (Homo sapiens) (Q9H2G2 whole entry, looked up): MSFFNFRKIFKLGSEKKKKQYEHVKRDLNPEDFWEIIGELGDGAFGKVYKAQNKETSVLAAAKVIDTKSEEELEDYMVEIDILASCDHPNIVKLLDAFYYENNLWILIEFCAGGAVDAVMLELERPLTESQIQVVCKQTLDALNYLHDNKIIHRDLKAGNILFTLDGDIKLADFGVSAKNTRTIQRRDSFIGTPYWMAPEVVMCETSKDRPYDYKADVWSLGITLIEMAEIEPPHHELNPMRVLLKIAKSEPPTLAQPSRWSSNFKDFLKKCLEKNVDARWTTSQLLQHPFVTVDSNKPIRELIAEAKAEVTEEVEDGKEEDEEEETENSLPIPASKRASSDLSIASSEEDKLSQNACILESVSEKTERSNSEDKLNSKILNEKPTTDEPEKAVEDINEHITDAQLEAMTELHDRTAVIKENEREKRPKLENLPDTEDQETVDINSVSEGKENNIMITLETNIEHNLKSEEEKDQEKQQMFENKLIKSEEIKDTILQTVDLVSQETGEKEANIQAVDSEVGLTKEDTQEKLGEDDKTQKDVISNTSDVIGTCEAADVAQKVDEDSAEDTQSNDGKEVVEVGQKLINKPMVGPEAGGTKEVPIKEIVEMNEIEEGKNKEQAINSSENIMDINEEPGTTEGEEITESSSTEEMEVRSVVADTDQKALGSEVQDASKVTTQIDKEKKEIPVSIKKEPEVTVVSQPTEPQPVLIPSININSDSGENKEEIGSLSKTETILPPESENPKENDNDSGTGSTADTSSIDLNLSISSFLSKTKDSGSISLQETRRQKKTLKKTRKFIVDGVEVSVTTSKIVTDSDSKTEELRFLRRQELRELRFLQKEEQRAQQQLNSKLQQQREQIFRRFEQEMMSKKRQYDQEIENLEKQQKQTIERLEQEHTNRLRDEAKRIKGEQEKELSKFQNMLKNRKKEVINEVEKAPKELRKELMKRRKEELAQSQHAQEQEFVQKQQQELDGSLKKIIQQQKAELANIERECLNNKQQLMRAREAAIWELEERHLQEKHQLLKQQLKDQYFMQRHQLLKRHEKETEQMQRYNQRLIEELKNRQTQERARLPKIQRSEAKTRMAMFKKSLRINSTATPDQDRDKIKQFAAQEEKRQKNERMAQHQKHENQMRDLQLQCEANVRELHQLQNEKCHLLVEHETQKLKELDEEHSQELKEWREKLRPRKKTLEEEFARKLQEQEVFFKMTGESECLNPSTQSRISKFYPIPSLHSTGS

| SMILES | ΔTm [°C] |
| --- | --- |
| COc1ccc(S(=O)(=O)N(CCO)c2ccccc2CN(C)C/C=C/c2ccc(Cl)cc2)cc1 | 1.1 |
| O=C(Nc1cccc(Nc2nccc(Nc3cccc(C(F)(F)F)c3)n2)c1)C1CC1 [ANILINOPYRIMIDINE1] | 4.1 |
| CCOc1ccc(/C=C2/SC(=O)N(CCN)C2=O)cc1 [HIAZOLIDINEDIONE1] | -0.4 |
| O=C1NC(=O)C(c2cn(CCCn3ccnc3)c3ccccc23)=C1Nc1ccccc1 | 4.8 |

Each molecule was assayed against Ribosomal protein S6 kinase alpha-3 (Homo sapiens) (UniProt P51812).

| SMILES | ΔTm [°C] |
| --- | --- |
| COc1ccc(S(=O)(=O)N(CCO)c2ccccc2CN(C)C/C=C/c2ccc(Cl)cc2)cc1 | 0.7 |
| O=C(Nc1cccc(Nc2nccc(Nc3cccc(C(F)(F)F)c3)n2)c1)C1CC1 [ANILINOPYRIMIDINE1] | 5.7 |
| CCOc1ccc(/C=C2/SC(=O)N(CCN)C2=O)cc1 [HIAZOLIDINEDIONE1] | 0 |
| O=C1NC(=O)C(c2cn(CCCn3ccnc3)c3ccccc23)=C1Nc1ccccc1 | 6.3 |

These molecules were tested against Glycogen synthase kinase-3 beta (Homo sapiens, UniProt P49841).
Sequence of Glycogen synthase kinase-3 beta (P49841 whole entry, looked up): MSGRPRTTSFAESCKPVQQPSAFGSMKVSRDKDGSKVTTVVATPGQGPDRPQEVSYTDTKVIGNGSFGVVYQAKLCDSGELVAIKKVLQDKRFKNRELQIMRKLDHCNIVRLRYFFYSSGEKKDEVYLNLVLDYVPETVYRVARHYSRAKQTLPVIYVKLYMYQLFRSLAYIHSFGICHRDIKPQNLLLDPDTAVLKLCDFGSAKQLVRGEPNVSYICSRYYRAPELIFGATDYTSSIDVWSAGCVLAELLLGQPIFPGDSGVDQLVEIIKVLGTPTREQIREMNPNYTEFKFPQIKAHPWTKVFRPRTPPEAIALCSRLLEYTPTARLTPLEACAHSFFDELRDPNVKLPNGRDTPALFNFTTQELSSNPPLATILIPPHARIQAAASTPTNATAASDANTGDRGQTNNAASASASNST

| SMILES | ΔTm [°C] |
| --- | --- |
| COc1ccc(S(=O)(=O)N(CCO)c2ccccc2CN(C)C/C=C/c2ccc(Cl)cc2)cc1 | 0 |
| O=C(Nc1cccc(Nc2nccc(Nc3cccc(C(F)(F)F)c3)n2)c1)C1CC1 [ANILINOPYRIMIDINE1] | 1.1 |
| CCOc1ccc(/C=C2/SC(=O)N(CCN)C2=O)cc1 [HIAZOLIDINEDIONE1] | -1.3 |
| O=C1NC(=O)C(c2cn(CCCn3ccnc3)c3ccccc23)=C1Nc1ccccc1 | 8.4 |

These molecules were tested against T3, 3-phosphoinositide-dependent protein kinase 1 (Homo sapiens) (UniProt O15530).
T3 sequence (whole entry): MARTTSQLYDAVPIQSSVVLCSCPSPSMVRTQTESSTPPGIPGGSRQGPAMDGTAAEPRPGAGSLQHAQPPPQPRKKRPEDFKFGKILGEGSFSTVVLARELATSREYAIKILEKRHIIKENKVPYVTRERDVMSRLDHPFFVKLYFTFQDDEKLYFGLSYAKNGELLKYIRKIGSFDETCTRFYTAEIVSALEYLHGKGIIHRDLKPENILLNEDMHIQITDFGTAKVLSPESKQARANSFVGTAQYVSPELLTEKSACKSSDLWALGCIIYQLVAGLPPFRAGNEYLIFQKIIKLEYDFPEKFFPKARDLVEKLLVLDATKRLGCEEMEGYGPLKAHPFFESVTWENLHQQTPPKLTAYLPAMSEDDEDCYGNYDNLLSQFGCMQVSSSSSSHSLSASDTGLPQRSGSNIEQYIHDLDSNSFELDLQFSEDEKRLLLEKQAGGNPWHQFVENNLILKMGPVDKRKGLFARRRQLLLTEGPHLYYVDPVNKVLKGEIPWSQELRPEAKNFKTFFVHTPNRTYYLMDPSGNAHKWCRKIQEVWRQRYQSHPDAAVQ

| SMILES | ΔTm [°C] |
| --- | --- |
| COc1ccc(S(=O)(=O)N(CCO)c2ccccc2CN(C)C/C=C/c2ccc(Cl)cc2)cc1 | 0.4 |
| O=C(Nc1cccc(Nc2nccc(Nc3cccc(C(F)(F)F)c3)n2)c1)C1CC1 [ANILINOPYRIMIDINE1] | 1.6 |
| CCOc1ccc(/C=C2/SC(=O)N(CCN)C2=O)cc1 [HIAZOLIDINEDIONE1] | -0.3 |
| O=C1NC(=O)C(c2cn(CCCn3ccnc3)c3ccccc23)=C1Nc1ccccc1 | 0.1 |

These molecules were tested against Calcium/calmodulin-dependent protein kinase type 1D (Homo sapiens) (UniProt Q8IU85).
Sequence of Calcium/calmodulin-dependent protein kinase type 1D (Homo sapiens) (Q8IU85 whole entry, looked up): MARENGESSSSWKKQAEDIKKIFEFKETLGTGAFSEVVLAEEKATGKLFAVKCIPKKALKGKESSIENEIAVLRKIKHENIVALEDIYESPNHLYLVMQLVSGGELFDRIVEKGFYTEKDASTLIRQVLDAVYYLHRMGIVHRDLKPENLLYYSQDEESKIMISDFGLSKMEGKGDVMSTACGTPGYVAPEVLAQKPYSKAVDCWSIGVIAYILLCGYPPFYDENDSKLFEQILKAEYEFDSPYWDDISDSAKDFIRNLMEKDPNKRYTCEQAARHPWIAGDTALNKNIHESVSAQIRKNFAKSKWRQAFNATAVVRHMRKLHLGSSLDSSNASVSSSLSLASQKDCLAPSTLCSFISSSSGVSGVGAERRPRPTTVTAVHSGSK

| SMILES | ΔTm [°C] |
| --- | --- |
| COc1ccc(S(=O)(=O)N(CCO)c2ccccc2CN(C)C/C=C/c2ccc(Cl)cc2)cc1 | -0.3 |
| O=C(Nc1cccc(Nc2nccc(Nc3cccc(C(F)(F)F)c3)n2)c1)C1CC1 [ANILINOPYRIMIDINE1] | 2.8 |
| CCOc1ccc(/C=C2/SC(=O)N(CCN)C2=O)cc1 [HIAZOLIDINEDIONE1] | -0.2 |
| O=C1NC(=O)C(c2cn(CCCn3ccnc3)c3ccccc23)=C1Nc1ccccc1 | 0.2 |

The molecules below were run against Serine/threonine-protein kinase pim-1 (Homo sapiens) (UniProt P11309).
Sequence of Serine/threonine-protein kinase pim-1 (Homo sapiens) (P11309 whole entry, looked up): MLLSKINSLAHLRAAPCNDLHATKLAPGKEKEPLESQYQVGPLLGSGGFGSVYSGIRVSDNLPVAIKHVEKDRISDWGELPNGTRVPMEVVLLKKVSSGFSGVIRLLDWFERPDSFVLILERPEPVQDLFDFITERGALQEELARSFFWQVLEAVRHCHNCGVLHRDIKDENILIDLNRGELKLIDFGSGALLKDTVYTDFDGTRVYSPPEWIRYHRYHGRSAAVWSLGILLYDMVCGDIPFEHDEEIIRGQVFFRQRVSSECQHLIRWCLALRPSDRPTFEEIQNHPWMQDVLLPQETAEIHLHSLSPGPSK

| SMILES | ΔTm [°C] |
| --- | --- |
| COc1ccc(S(=O)(=O)N(CCO)c2ccccc2CN(C)C/C=C/c2ccc(Cl)cc2)cc1 | 1.3 |
| O=C(Nc1cccc(Nc2nccc(Nc3cccc(C(F)(F)F)c3)n2)c1)C1CC1 [ANILINOPYRIMIDINE1] | 7.3 |
| CCOc1ccc(/C=C2/SC(=O)N(CCN)C2=O)cc1 [HIAZOLIDINEDIONE1] | -0.4 |
| O=C1NC(=O)C(c2cn(CCCn3ccnc3)c3ccccc23)=C1Nc1ccccc1 | 3.1 |

What follows are molecules tested against Serine/threonine-protein kinase Chk2 (Homo sapiens, UniProt O96017).

| SMILES | ΔTm [°C] |
| --- | --- |
| COc1ccc(S(=O)(=O)N(CCO)c2ccccc2CN(C)C/C=C/c2ccc(Cl)cc2)cc1 | -0.1 |
| O=C(Nc1cccc(Nc2nccc(Nc3cccc(C(F)(F)F)c3)n2)c1)C1CC1 [ANILINOPYRIMIDINE1] | 3.8 |
| CCOc1ccc(/C=C2/SC(=O)N(CCN)C2=O)cc1 [HIAZOLIDINEDIONE1] | 0.7 |
| O=C1NC(=O)C(c2cn(CCCn3ccnc3)c3ccccc23)=C1Nc1ccccc1 | 1.5 |

The molecules below were run against Dual specificity protein kinase CLK1 (Homo sapiens) (UniProt P49759).
Sequence of Dual specificity protein kinase CLK1 (Homo sapiens) (P49759 whole entry, looked up): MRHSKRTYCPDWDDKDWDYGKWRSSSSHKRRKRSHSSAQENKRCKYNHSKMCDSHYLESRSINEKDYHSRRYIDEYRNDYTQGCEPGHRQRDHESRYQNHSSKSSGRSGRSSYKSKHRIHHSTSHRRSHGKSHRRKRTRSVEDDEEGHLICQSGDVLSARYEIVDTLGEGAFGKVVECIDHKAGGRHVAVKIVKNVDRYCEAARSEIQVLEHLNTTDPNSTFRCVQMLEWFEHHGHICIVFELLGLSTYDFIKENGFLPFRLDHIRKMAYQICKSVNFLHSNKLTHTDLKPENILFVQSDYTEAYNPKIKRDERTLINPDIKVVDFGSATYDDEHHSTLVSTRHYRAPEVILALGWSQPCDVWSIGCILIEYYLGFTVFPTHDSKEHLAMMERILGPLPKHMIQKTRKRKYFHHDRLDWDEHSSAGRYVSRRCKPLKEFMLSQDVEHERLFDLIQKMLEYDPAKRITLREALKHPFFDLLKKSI

| SMILES | ΔTm [°C] |
| --- | --- |
| COc1ccc(S(=O)(=O)N(CCO)c2ccccc2CN(C)C/C=C/c2ccc(Cl)cc2)cc1 | 0.1 |
| O=C(Nc1cccc(Nc2nccc(Nc3cccc(C(F)(F)F)c3)n2)c1)C1CC1 [ANILINOPYRIMIDINE1] | 1.9 |
| CCOc1ccc(/C=C2/SC(=O)N(CCN)C2=O)cc1 [HIAZOLIDINEDIONE1] | 0.9 |
| O=C1NC(=O)C(c2cn(CCCn3ccnc3)c3ccccc23)=C1Nc1ccccc1 | 5.8 |

What follows are molecules tested against Serine/threonine-protein kinase 26 (Homo sapiens) (UniProt Q9P289).

| SMILES | ΔTm [°C] |
| --- | --- |
| COc1ccc(S(=O)(=O)N(CCO)c2ccccc2CN(C)C/C=C/c2ccc(Cl)cc2)cc1 | -0.1 |
| O=C(Nc1cccc(Nc2nccc(Nc3cccc(C(F)(F)F)c3)n2)c1)C1CC1 [ANILINOPYRIMIDINE1] | 0.7 |
| CCOc1ccc(/C=C2/SC(=O)N(CCN)C2=O)cc1 [HIAZOLIDINEDIONE1] | -0.1 |
| O=C1NC(=O)C(c2cn(CCCn3ccnc3)c3ccccc23)=C1Nc1ccccc1 | 3.1 |

The molecules below were run against Cyclin-dependent kinase 6 (Homo sapiens) (UniProt Q00534).
Sequence of Cyclin-dependent kinase 6 (Homo sapiens) (Q00534 whole entry): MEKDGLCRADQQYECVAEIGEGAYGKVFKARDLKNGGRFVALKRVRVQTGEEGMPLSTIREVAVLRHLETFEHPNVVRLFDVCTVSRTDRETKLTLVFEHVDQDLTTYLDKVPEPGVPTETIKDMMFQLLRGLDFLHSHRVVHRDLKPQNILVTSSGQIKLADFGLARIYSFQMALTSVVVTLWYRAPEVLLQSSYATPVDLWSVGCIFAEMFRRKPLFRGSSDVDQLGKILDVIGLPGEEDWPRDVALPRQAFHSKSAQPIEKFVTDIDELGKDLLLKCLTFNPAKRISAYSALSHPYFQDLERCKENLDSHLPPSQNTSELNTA

| SMILES | ΔTm [°C] |
| --- | --- |
| COc1ccc(S(=O)(=O)N(CCO)c2ccccc2CN(C)C/C=C/c2ccc(Cl)cc2)cc1 | -0.3 |
| O=C(Nc1cccc(Nc2nccc(Nc3cccc(C(F)(F)F)c3)n2)c1)C1CC1 [ANILINOPYRIMIDINE1] | 0.8 |
| CCOc1ccc(/C=C2/SC(=O)N(CCN)C2=O)cc1 [HIAZOLIDINEDIONE1] | 0.2 |
| O=C1NC(=O)C(c2cn(CCCn3ccnc3)c3ccccc23)=C1Nc1ccccc1 | 0.9 |

These molecules were tested against Cyclin-dependent kinase-like 1 (Homo sapiens) (UniProt Q00532).
Sequence of Cyclin-dependent kinase-like 1 (Homo sapiens) (Q00532 whole entry): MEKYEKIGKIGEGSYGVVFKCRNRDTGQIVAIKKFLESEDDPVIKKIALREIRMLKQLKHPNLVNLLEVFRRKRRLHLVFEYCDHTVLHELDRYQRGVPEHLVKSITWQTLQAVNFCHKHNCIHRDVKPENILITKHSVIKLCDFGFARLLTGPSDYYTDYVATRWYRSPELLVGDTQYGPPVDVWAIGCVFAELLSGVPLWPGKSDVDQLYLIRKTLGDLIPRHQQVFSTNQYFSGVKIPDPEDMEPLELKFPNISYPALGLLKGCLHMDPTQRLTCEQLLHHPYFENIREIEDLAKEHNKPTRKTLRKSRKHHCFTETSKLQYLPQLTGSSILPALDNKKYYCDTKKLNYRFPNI

| SMILES | ΔTm [°C] |
| --- | --- |
| COc1ccc(S(=O)(=O)N(CCO)c2ccccc2CN(C)C/C=C/c2ccc(Cl)cc2)cc1 | -1.2 |
| O=C(Nc1cccc(Nc2nccc(Nc3cccc(C(F)(F)F)c3)n2)c1)C1CC1 [ANILINOPYRIMIDINE1] | 1.6 |
| CCOc1ccc(/C=C2/SC(=O)N(CCN)C2=O)cc1 [HIAZOLIDINEDIONE1] | 0.3 |
| O=C1NC(=O)C(c2cn(CCCn3ccnc3)c3ccccc23)=C1Nc1ccccc1 | 0.3 |
